Experiments:
[1] = system: IL-21 secretion from human CD4+ T cells; assay: Suppression of IL-21 secretion by activated Th17 cells (ALPHALISA); type: cell-based; settings: for IC50: 120 h, human CD4+ T cells under Th17 stimulation, 5 days; for potency in suppressing IL-21 secretion, in words: human CD4+ T cells
Description: IL-21 is a pro-inflammatory cytokine secreted by CD4^+ Th17 cells and is thought to serve as a T-cell growth factor playing overlapping roles with IL-2. This Example describes a study that measured the IC50 values of the indole compounds disclosed herein for suppressing IL-21 secretion from human CD4^+ T cells that had been treated with stimulatory conditions that gave rise to TH17 cells (see, e.g., Dobritsa et al., J Biomol Screen. 18(1):75-84 (2013)).
Human CD4^+ T cells were purchased from Lonza Walkersville Inc. (Walkersville, MD). DMSO was obtained from Sigma (St. Louis, MO). Greiner cell culture plates, Gibco DMEM cell culture medium, media supplements, and antibiotics, as well as DYNABEADS Human T-Activator CD3/CD28 and R&D Systems TGF-β, IL-1β and IL-23 and Invitrogen IL-6 cytokines, were purchased through Fisher Scientific (Pittsburgh, PA). ALPHALISA assay plates and the Human Interleukin-21 ALPHALISA kit was obtained from Perkin Elmer (Boston, MA).
Cell culture plates were pre-coated with test compounds in serial dilutions for generating a 10-point, 3-fold dose response curve with a top concentration of 1 μM or 100 nM. To do this, compounds were dissolved in DMSO and added to an ECHO qualified plate for transfer to the cell culture plate with the ECHO555. The indole compounds to be tested were dissolved in […] and wells were backfilled with DMSO so that all treatments received 0.1% DMSO final volume. Positive control (0% inhibition) wells, in which compounds were replaced with […], were included on each plate. At least 15×10^6 frozen CD4^+ T cells per plate of compounds were thawed in a 37° C. water bath, and the cells were washed twice with 10 mL of the complete medium (DMEM supplemented with 10% fetal bovine serum (FBS), 100 U/mL penicillin, and 100 μg/mL streptomycin), followed by centrifugation (250×g, 10 min). Cells were re-suspended to the desired density, and cultured in 384-well treated sterile cell culture plates in a total volume of 50 μL per well. Each plate included wells with induced and un-induced cells.
Induced cells were activated in the complete medium with DYNABEADS Human T-Activator CD3/CD28 at a bead-to-cell ratio of 1:2.5 and stimulated with the following cytokines: transforming growth factor-β (TGF-β, 5 ng/mL), IL-6 (20 ng/mL), IL-23 (20 ng/mL), and IL-1β (10 ng/mL).
Un-induced cells were left in complete medium with no additional supplements. Plates were incubated at 37° C., 5% CO2 for a total of 5 days. Upon completion of the 5 day incubation period, cells were spun down (1,000×g, 1 min) and supernatant was transferred to the ALPHALISA assay plate using the Mosquito HTS liquid handler (TTP Labtech Inc., Cambridge, MA).
IL-21 levels in cell supernatants and cell-free control samples were measured using the ALPHALISA assay kit from Perkin Elmer, following the manufacturer's instructions. The assay was run at room temperature in 384-well ALPHAPLATES (cat. 6005350; Boston, MA). Briefly, immediately after transferring the cell supernatant to the assay plate, anti-IL-21 acceptor beads were added with the CERTUS FLEX liquid handler (LEAP Technologies, Morrisville, NC). The plate was sealed, spun down and incubated for 30 minutes. After incubation, the seal was removed, anti-IL-21 biotinylated antibody was added with the CERTUS FLEX, and the plate was sealed again, spun down and incubated for 60 minutes. Next, the seal was removed, streptavidin-coated donor beads were added with the CERTUS FLEX, and the plate was sealed, spun down and incubated for another 60 minutes. Finally, the seal was removed and the plate was read using the ENVISION reader (Perkin Elmer, Boston, MA) set with an excitation filter of 680 nm and an emission filter of 615 nm. Two independent IL-21 standard dilution curves were run per plate with analyte provided in the ALPHALISA kit.
For estimation of the assay performance, Z′ values were calculated for each plate, comparing positive and negative controls. […]

[2] = Hepatocyte intrinsic clearance assay, human hepatocytes; type: in vitro ADME; settings: male, cryopreserved pooled human hepatocytes; Human Hepatocytes, 1 μM test compound
Description: The liver is an important organ in the body for drug metabolism. This Example describes hepatocyte intrinsic clearance assays using both human and mouse hepatocytes to evaluate the metabolic stability of the indole compounds disclosed herein. The parameters measured include t1/2 (half-life), CLint (intrinsic clearance), and EH (hepatic extraction ratio).
Testosterone (Lot FE111011-01) was obtained from Cerilliant (Round Rock, TX). 7-hydroxycoumarin (Lot 11631ED) was obtained from Sigma Aldrich (St. Louis, MO). Cryopreserved human hepatocytes pooled from ten donor males (X008001), cryopreserved male IRC/CD-1 mouse hepatocytes (M005052), INVITROGRO HI Medium (incubation), and INVITROGRO HT Medium (thawing) were obtained from Bioreclamation IVT (Baltimore, MD). All solvents were obtained from commercial sources and used without further purification.
Each test compound was prepared as a 1 mM stock solution in DMSO. A 2 μM solution of test compound and positive controls were prepared in INVITROGRO HI Medium (incubation). These solutions were pre-warmed in a sterile incubator set to maintain 37° C., 5% CO2, and 98% humidity. Cryopreserved hepatocytes were prepared at a concentration of 2×10^6 living cells/mL in incubation media and pre-warmed in the incubator. The compound solutions and hepatocyte mixtures were then combined at a ratio of 1:1 (v:v). The final volume of the reaction mixture was 750 μL, containing 1 μM test compound (10 μM for 7-hydroxycoumarin) and […]. The reaction mixture was placed in the incubator on a plate shaker. After 0, 15, 30, 60, 90, and 120 minutes of incubation, 100 μL of reaction mixtures were removed from the incubation plate and mixed with 150 μL of ice-cold acetonitrile in a designated well of a 96-well crash plate. The 96-well crash plate was placed on ice for 15 min, and samples were centrifuged (3,600 RPM, 10 min, 4° C.) to precipitate protein. The supernatants were diluted 1:1 (v:v) with water containing 0.15 μM verapamil and/or 1 μM tolbutamide (internal standards for positive and negative modes, respectively) in a 96-well shallow injection plate. This plate was sealed for LC-MS analysis. All measurements were done in duplicate.
The residual compound remaining (% R) was determined from LC-MS peak areas by comparison to the zero time point. Metabolic half-life (t1/2) and intrinsic clearance (CLint) values were calculated from the slope of the plot of ln (% R) vs. time and the concentration of hepatocytes present in the incubation. Percent remaining at 60 minutes was calculated by plugging in the 60 minute value into the slope equation generated by the percent remaining time points.
In vivo hepatic clearance CLH was calculated using the well stirred liver model according to the following equation:
[formula] where QH is the total liver blood flow, fu is unbound fraction of the drug, and CL′int is defined as follows: CL′int=CLint×(10^6 cells/g of liver weight)×(g liver weight/kg of body weight). In the first approximation, used in this study, fu=1.
Hepatic extraction ratio EH was calculated using the following equation:
[formula] Corresponding physiological parameters used in calculations for all species are shown below in Table 5.

CNC(=O)c1csc(C(=O)c2c[nH]c3ccccc23)n1 [ARI-004]
IC50 [1]: 231 nM
potency in suppressing IL-21 secretion, in words [1]: weak activity
half-life at 1 μM [2]: 0.712 h

Cc1nc(-c2csc(C(=O)c3c[nH]c4ccccc34)n2)no1 [ARI-030, (1H-indol-3-yl)(4-(5-methyl-1,2,4-oxadiazol-3-yl)thiazol-2-yl)methanone]
IC50 [1]: 40 nM
potency in suppressing IL-21 secretion, in words [1]: among the least potent
half-life at 1 μM [2]: 6.31 h

Source: US11891386B2, “Indole compounds and their use” (ARIAGEN, INC., priority 2017, dated 2024)
